Experimental data: paper PMC4858680, “A platinum-based hybrid drug design approach to circumvent acquired resistance to molecular targeted tyrosine kinase inhibitors” (Scientific Reports, 2016)

Columns and labels:
[1] = molecular target: T1, ABL1(E317I)-nonphosphorylated (Homo sapiens, UniProt P00519, F317I); details: 10 μM
[2] = molecular target: ABL1(Q252H)-nonphosphorylated (Homo sapiens, UniProt P00519, Q252H); details: 10 μM
[3] = molecular target: ABL1(F317L)-phosphorylated (Homo sapiens, UniProt P00519, F317L); details: 10 μM
[4] = molecular target: ABL1(F317I)-phosphorylated (Homo sapiens, UniProt P00519, F317I); details: 10 μM
[5] = molecular target: ABL1(F317L)-nonphosphorylated (Homo sapiens, UniProt P00519, F317L); details: 10 μM
[6] = molecular target: P-gp (MDCKII–P-gp) (Homo sapiens, UniProt P08183); details: 10 μM, mean of three experiments
Chain of P-gp (MDCKII–P-gp) (P08183 whole entry): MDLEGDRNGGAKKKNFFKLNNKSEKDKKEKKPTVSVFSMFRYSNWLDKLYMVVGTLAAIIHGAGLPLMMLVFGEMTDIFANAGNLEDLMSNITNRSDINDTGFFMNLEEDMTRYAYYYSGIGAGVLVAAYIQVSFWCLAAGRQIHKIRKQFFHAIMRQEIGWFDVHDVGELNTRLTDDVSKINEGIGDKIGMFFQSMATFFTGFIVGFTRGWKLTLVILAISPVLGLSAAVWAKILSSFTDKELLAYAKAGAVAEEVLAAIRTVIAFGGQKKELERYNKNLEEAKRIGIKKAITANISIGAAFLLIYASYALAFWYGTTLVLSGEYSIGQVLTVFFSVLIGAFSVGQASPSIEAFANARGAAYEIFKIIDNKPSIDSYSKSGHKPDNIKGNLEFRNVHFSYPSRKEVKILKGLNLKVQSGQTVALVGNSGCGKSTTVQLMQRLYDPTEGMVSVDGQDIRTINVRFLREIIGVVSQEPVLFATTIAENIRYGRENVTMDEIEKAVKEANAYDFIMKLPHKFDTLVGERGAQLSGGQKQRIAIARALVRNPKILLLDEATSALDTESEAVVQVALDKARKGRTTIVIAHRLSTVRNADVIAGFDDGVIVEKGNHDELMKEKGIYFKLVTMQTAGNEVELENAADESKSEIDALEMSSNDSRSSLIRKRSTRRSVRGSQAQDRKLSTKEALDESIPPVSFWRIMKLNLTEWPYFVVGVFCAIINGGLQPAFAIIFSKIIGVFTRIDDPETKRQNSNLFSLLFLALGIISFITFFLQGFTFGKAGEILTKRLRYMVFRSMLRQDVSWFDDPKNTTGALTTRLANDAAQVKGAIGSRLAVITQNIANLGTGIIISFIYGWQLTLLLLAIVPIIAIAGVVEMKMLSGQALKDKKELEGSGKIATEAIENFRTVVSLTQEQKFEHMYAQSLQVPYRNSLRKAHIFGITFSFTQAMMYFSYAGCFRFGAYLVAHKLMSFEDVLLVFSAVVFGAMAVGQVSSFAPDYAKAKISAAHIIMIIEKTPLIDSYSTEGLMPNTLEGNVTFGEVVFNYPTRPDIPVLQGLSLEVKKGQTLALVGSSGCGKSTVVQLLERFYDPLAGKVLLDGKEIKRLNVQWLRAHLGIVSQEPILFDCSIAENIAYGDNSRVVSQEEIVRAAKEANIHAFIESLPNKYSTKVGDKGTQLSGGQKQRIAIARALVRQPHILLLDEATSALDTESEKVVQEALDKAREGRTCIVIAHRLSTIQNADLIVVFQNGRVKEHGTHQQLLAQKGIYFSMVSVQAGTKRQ

[7] = molecular target: T2, ABL1(H396P)-phosphorylated (Homo sapiens, UniProt P00519, H396P); details: 10 μM
[8] = system: K562 Ima1.0; test: Anticancer activity in imatinib-selected resistant K562 subline; type: cell-based; details: read-out: Anticancer activity (IC50) K562 Imatinib selected (K562 Ima1.0); Bcr-Abl amplification
[9] = molecular target: T3, TIE1 (Homo sapiens, UniProt P35590); type: binding; details: 10 μM
T3 construct: purchased DiscoveRx (KINOMEscan service)
T3 sequence (P35590 22-1138): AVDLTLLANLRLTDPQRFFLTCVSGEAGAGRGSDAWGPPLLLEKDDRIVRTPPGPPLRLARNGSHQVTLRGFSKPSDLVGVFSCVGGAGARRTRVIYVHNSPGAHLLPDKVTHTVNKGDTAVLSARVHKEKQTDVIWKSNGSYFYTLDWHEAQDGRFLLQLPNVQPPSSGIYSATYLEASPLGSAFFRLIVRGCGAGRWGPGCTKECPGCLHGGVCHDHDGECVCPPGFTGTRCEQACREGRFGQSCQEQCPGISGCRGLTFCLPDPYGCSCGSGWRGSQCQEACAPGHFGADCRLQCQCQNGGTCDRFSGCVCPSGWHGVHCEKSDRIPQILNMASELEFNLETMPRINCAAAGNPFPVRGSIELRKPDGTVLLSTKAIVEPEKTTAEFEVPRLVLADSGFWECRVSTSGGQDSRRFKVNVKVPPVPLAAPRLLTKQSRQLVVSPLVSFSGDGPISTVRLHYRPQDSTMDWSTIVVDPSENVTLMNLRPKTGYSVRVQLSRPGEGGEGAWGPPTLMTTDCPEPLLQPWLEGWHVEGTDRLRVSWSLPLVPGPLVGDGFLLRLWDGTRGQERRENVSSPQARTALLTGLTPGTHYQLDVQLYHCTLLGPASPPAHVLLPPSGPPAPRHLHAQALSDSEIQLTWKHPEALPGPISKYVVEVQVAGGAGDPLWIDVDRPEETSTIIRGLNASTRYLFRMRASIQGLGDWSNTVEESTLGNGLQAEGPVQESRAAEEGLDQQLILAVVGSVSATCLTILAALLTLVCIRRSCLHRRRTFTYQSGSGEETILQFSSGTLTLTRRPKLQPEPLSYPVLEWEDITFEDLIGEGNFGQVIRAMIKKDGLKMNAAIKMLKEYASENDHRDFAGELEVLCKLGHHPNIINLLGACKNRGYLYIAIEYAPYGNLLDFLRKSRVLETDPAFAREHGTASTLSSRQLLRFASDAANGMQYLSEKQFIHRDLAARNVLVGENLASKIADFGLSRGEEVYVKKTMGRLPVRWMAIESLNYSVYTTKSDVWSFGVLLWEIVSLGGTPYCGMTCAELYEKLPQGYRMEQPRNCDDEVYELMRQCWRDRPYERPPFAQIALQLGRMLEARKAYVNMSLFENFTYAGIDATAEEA

[10] = molecular target: T4, DDR2 (Homo sapiens, UniProt Q16832); test: biochemical; details: read-out: Percent control
T4 sequence (Q16832 22-855): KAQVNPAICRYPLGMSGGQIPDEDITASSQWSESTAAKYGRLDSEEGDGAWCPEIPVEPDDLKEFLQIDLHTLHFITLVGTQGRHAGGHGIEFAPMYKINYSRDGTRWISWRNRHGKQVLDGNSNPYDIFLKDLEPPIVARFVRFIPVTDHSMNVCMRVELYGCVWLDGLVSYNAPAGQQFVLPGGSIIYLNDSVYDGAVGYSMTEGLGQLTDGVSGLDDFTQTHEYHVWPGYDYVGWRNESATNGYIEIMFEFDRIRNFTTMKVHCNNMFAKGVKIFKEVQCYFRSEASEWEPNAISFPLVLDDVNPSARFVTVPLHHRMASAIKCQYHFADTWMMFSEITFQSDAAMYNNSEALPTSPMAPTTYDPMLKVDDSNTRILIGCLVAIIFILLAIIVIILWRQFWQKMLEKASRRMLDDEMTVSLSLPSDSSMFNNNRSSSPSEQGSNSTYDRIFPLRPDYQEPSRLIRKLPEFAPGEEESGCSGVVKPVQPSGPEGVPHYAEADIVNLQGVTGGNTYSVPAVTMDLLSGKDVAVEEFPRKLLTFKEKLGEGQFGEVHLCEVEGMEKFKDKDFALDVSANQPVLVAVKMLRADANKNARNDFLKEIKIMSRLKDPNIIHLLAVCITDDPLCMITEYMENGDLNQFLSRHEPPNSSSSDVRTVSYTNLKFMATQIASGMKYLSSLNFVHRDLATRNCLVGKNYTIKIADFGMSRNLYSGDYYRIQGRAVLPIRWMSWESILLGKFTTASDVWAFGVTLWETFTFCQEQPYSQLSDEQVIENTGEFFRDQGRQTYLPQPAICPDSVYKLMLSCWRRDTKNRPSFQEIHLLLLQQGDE

[11] = molecular target: TIE2 (Homo sapiens, UniProt Q02763); test: biochemical; details: read-out: Percent control
[12] = molecular target: EGFR (Homo sapiens, UniProt P00533); test: biochemical; details: read-out: Percent control
[13] = molecular target: ABL1(Q252H)-phosphorylated (Homo sapiens, UniProt P00519, Q252H); test: biochemical; details: read-out: Percent control
[14] = molecular target: T2, ABL1(H396P)-phosphorylated; test: biochemical; details: read-out: Percent control
[15] = molecular target: FGFR3 (Homo sapiens, UniProt P22607); test: biochemical; details: read-out: Percent control
Chain of FGFR3 (P22607 23-806): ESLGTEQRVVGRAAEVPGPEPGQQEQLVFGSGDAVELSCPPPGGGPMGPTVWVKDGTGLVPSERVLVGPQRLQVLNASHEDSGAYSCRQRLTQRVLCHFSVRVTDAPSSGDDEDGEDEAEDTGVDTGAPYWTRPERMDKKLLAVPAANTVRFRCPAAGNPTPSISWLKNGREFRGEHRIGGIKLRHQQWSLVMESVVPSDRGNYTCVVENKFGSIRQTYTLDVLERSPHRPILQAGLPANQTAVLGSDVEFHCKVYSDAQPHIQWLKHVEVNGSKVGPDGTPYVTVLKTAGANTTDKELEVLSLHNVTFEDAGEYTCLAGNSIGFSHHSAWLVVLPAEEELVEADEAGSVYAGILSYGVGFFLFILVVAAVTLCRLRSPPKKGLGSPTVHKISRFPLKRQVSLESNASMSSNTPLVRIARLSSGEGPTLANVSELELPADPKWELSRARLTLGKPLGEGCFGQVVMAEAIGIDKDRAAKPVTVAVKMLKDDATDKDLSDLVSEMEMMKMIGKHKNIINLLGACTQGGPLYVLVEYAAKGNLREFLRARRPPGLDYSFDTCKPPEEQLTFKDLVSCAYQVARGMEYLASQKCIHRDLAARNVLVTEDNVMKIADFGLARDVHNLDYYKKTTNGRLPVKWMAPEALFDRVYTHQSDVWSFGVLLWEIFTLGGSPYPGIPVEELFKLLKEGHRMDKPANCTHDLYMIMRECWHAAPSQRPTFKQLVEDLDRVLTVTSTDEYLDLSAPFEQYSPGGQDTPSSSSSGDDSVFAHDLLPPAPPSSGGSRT

[16] = molecular target: RET(M918T) (Homo sapiens, UniProt P07949, M918T); test: biochemical; details: read-out: Percent control
Chain of RET(M918T) (P07949 29-1114 M918T): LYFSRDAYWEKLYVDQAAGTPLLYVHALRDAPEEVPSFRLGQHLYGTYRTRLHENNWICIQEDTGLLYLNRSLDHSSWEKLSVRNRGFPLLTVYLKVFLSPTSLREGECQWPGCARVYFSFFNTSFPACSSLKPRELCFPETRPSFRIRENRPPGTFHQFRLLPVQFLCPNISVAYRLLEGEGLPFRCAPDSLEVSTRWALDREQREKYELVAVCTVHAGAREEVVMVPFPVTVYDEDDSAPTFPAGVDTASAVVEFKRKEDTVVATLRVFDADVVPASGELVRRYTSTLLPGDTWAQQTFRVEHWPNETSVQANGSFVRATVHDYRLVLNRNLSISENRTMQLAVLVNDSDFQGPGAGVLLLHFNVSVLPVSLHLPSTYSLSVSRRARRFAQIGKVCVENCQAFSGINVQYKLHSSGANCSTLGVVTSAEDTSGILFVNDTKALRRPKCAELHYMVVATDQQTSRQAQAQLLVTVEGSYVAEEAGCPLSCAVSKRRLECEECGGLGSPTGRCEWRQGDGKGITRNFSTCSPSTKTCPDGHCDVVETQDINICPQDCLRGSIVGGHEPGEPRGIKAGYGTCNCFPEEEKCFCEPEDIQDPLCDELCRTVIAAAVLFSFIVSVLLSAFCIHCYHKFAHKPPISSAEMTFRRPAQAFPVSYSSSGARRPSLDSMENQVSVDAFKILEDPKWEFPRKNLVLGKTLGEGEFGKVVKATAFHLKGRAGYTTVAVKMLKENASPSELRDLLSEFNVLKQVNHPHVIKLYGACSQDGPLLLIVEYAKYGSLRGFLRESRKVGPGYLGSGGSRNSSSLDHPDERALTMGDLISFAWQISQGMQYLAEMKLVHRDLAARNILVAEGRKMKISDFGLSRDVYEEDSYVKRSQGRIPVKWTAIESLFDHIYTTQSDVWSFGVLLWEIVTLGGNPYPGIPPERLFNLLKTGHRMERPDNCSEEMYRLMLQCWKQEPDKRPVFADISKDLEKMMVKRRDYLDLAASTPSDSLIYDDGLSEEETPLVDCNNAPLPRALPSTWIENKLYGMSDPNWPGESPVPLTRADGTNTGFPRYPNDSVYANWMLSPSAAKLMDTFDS

[17] = molecular target: ABL1(T315I)-nonphosphorylated (Homo sapiens, UniProt P00519, T315I); test: biochemical; details: read-out: Percent control
[18] = molecular target: RET (Homo sapiens, UniProt P07949); test: biochemical; details: read-out: Percent control
Chain of RET (P07949 29-1114): as the sequence (P07949 29-1114 M918T) above, with T890M counted along it

[19] = molecular target: ABL1(E255K)-phosphorylated (Homo sapiens, UniProt P00519, E255K); test: biochemical; details: read-out: Percent control
[20] = molecular target: ABL1(H396P)-nonphosphorylated (Homo sapiens, UniProt P00519, H396P); test: biochemical; details: read-out: Percent control
[21] = molecular target: T5, FLT3(K663D) (Homo sapiens, UniProt P36888, K663Q); test: biochemical; details: read-out: Percent control
T5 sequence (P36888 564-993 K663Q limits assumed): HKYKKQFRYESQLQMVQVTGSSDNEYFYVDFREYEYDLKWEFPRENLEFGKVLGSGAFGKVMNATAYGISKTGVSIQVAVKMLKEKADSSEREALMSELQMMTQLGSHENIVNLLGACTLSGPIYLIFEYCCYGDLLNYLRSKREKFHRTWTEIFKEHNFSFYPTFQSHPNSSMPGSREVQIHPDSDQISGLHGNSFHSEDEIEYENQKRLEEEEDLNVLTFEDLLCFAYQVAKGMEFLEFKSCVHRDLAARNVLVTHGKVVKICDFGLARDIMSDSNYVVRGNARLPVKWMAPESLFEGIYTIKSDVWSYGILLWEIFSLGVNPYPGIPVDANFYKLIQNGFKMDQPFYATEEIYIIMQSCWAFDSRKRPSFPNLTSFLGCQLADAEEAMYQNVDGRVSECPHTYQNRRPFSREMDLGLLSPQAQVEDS

[22] = molecular target: ABL1(T315I)-phosphorylated (Homo sapiens, UniProt P00519, T315I); test: biochemical; details: read-out: Percent control
[23] = molecular target: T1, ABL1(E317I)-nonphosphorylated; test: biochemical; details: read-out: Percent control

Work on `C#Cc1cccc(Nc2c3cc(OCCOC)c(OCCOC)cc3nc[n+]2[Pt@SP2-2]([NH3+])([NH3+])[Cl])c1` [2a, cisplatin-erlotinib] yielded a Percent control [1] of 83%, a Percent control [2] of 13% and a Percent control [3] of 25%. For the same compound, the Percent control [4] was 49%, the Percent control [5] was 61% and the “A to B transport (apparent permeability)” value [6] was 3.32 × 10^−6. The “B to A transport (apparent permeability)” value [6] was 2.82 × 10^−6 and the Percent control [7] was 13%.
`Cc1ccc(NC(=O)c2ccc(CN3CCN(C)CC3)cc2)cc1Nc1nccc(-c2cccnc2)[n+]1[Pt-2]1([Cl])[NH2+]C2CCCCC2[NH2+]1` (stereo not drawn) [1b, oxaliplatin-imatinib] showed an IC50 [8] of 2920 ± 930 nM and a Percent control [9] of 100%.
`COc1cc2c(Nc3ccc(Br)cc3F)ncnc2cc1OCC1CCN(C)CC1` [Vandetanib, reference compound] showed a remaining activity at 10 µM [10] of 3.1% and a remaining activity at 10 µM [11] of 9.1%.
For `Cc1ccc(NC(=O)c2ccc(CN3CCN(C)CC3)cc2)cc1Nc1nccc(-c2cccnc2)n1` [Imatinib, reference compound], the remaining activity at 10 µM [12] was 100%.
`C#Cc1cccc(Nc2ncnc3cc(OCCOC)c(OCCOC)cc23)c1` [Erlotinib] showed a remaining activity at 10 µM [13] of 0.6%, a remaining activity at 10 µM [14] of 0.6% and a remaining activity at 10 µM [15] of 100%. For the same compound, the remaining activity at 10 µM [16] was 3.2%, the remaining activity at 10 µM [17] was 5.8% and the remaining activity at 10 µM [18] was 11.5%. For the same compound, the remaining activity at 10 µM [19] was 0.6%, the remaining activity at 10 µM [20] was 0.9% and the remaining activity at 10 µM [21] was 11.5%. The remaining activity at 10 µM [22] was 0.6% and the remaining activity at 10 µM [23] was 45.1%.
